{
  "source": "patent US20240000669A1",
  "about": "“NOVEL ENDODONTIC IRRIGANT” (INTER-MED, INC., priority 2020, published 2024)",
  "key": {"[1]": {"test": "Free available chlorine over time in 1:1 mixtures of chelating agent solutions with 3% NaOCl", "type": "physicochemical", "details": "for ability to maintain initial available chlorine, in words: after 1 hour, HEDP only above a pH of 11"}, "[2]": {"test": "Mass loss of tissue samples in sodium hypochlorite at different pH values (FIG. 6)", "details": "30 mL sodium hypochlorite, 30 minutes", "excerpt": "The organic tissue dissolution capacity of NaOCl may be a function of free available chlorine in solution and a function of alkalinity. As pH increases to above […] the proportion of the hypochlorite anion (OCl^−) to hypochlorous acid (HOCl) dramatically increases. Below this pH, the concentration of hypochlorite anion decreases and the concentration of HOCl increases (see FIG. 5, which illustrates the chlorine speciation profile as a function of pH). […] However, as the concentration of the hypochlorite ions decreases, the tissue dissolution capacity also decreases (see FIG. 6, which illustrates mass loss of tissue samples incubated in 30 mL of sodium hypochlorite at different pH values after 30 minutes.). In certain aspects of the invention, the medicament comprises HOCl and OCl— and has a pH between 8 and 10."}, "[3]": {"test": "Organic tissue dissolution capacity of antiseptic and chelating solutions (mass loss of tissue samples, FIG. 4)", "details": "30 mL aqueous solution, 30 minutes", "protocol": "Since the smear layer produced upon mechanical debridement of infected dental hard tissues includes both organic and inorganic dentin components, an investigation was conducted to determine the organic tissue dissolution capacity of various antiseptics and chelating solutions that are commonly used in dentistry and medical applications. For this purpose, soft tissue samples were incubated in aqueous solutions containing the agents to be studied and the mass loss of the tissue samples was measured. The results are collected in FIG. 4, where the average mass loss is given as a percentage fraction of the initial weight. FIG. 4 illustrates the mass loss (Mean %) of tissue samples incubated in 30 mL of aqueous solutions of various agents after 30 minutes. […] It can be seen that high concentrations of NaOCl along with the addition of surfactants (anionic and nonionic) tended to increase the tissue dissolution rate."}, "[4]": {"test": "Smear layer removal from instrumented root canals (smear layer score)", "details": "score 1 = very little smear layer remaining, 5 = heavy smear layer present", "excerpt": "(§1) A score of 1 indicates very little smear layer remaining, whereas a score of 5 indicates heavy smear layer present."}, "[5]": {"test": "Preliminary investigation of smear layer removal (calcium chelation)", "excerpt": "as §1"}},
  "data": [
    {"smiles": "O=C(O)CCC(CC(=O)O)(C(=O)O)P(=O)(O)O", "note": "(stereo not drawn) [PBTC, 2-phosphonobutane-1,2,4,-tricarboxylic Acid]", "values": [
      {"measurement": "ability to maintain initial available chlorine, in words", "setting": "[1]", "value": "able to maintain most of their initial available chlorine"}
    ]},
    {"smiles": "OCl", "note": "[NaOCl, sodium hypochlorite]", "values": [
      {"measurement": "capability of dissolving organic tissue as a function of pH (FIG. 6), in words", "setting": "[2]", "value": "most capable of dissolving organic tissue at a pH above 8"},
      {"measurement": "mass loss of tissue samples (FIG. 4), in words", "setting": "[3]", "value": "largest mass loss"},
      {"measurement": "residual smear layer score, Apical", "setting": "[4]; apical root canal third", "value": 3.5},
      {"measurement": "residual smear layer score, Coronal", "setting": "[4]; coronal root canal third", "value": 3.2},
      {"measurement": "residual smear layer score, Middle", "setting": "[4]; middle root canal third", "value": 3.6}
    ]},
    {"smiles": "CC(O)(P(=O)(O)O)P(=O)(O)O", "note": "[HEDP, 1-hydroxyethylidene-1,1-diphosphonic acid]", "values": [
      {"measurement": "Free Available Chlorine Remaining Post Mix (hours): 0", "setting": "[1]; 0 h, HEDP 15% at pH 11.1, 1:1 mix with 3% NaOCl", "value": 100, "unit": "%"},
      {"measurement": "Free Available Chlorine Remaining Post Mix (hours): 1", "setting": "[1]; 1 h, HEDP 15% at pH 11.1, 1:1 mix with 3% NaOCl", "value": 80, "unit": "%"},
      {"measurement": "Free Available Chlorine Remaining Post Mix (hours): 4", "setting": "[1]; 4 h, HEDP 15% at pH 11.1, 1:1 mix with 3% NaOCl", "value": 40, "unit": "%"},
      {"measurement": "Free Available Chlorine Remaining Post Mix (hours): 24", "setting": "[1]; 24 h, HEDP 15% at pH 11.1, 1:1 mix with 3% NaOCl", "value": 20, "unit": "%"},
      {"measurement": "ability to maintain initial available chlorine, in words", "setting": "[1]", "value": "able to maintain most of their initial available chlorine"}
    ]},
    {"smiles": "O=P1([O-])OP(=O)([O-])OP(=O)([O-])OP(=O)([O-])OP(=O)([O-])OP(=O)([O-])O1.[Na+].[Na+].[Na+].[Na+].[Na+].[Na+]", "note": "[SH, sodium hexametaphosphate]", "values": [
      {"measurement": "ability to maintain initial available chlorine, in words", "setting": "[1]", "value": "able to maintain most of their initial available chlorine"},
      {"measurement": "calcium chelator strength, in words", "setting": "[5]", "value": "relatively weak calcium chelators"}
    ]},
    {"smiles": "O=P(O)(O)O[C@H]1[C@H](OP(=O)(O)O)[C@@H](OP(=O)(O)O)[C@H](OP(=O)(O)O)[C@@H](OP(=O)(O)O)[C@H]1OP(=O)(O)O", "note": "[PA, phytic acid (C6H6[OPO(OH)2]6)]", "values": [
      {"measurement": "ability to maintain initial available chlorine, in words", "setting": "[1]", "value": "able to maintain most of their initial available chlorine"},
      {"measurement": "calcium chelator strength, in words", "setting": "[5]", "value": "relatively weak calcium chelators"}
    ]}
  ]
}
